Laboratory results reported in the supplement of paper PMC10307832.

Key:
Experiment in all cases: relative viability (nuclei count vs DMSO), 5 days (fraction); higher = more cells survive
[1] = compound: C[C@@H](N)c1ccc(C(=O)Nc2ccnc3[nH]ccc23)cc1 + Nc1nc2[nH]cc(CCc3ccc(C(=O)N[C@@H](CCC(=O)O)C(=O)O)cc3)c2c(=O)[nH]1 [Pemetrexed] (partner 0.2 µM)
Summary of the method: (§1)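 A single step with final 0.05% Triton X-100, 1% formaldehyde and 1 ug/ml Hoechst fixed the cells and stained nuclei 5 days after treatment. Lung cancer cell lines in 1536-well plates had been treated by pin tool the day after seeding with one drug alone or a fixed anchor-drug dose plus five library-drug doses (not always all listed) in √10 steps, and nuclei were counted on 4× images. Relative viability is the ratio of nuclei in treated wells to nuclei in vehicle wells, taken as the median of duplicate plates.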

[2] = compound: O[C@H]1CC[C@H](Nc2ncc3nc(Nc4c(F)cc(F)cc4F)n([C@H]4CCOC4)c3n2)CC1 [Tanzisertib] + CC(C)C[C@H](NC(=O)[C@H](Cc1ccccc1)NC(=O)c1cnccn1)B(O)O [Bortezomib] (partner 0.002 µM)
Summary of the method: as §1

[3] = compound: O[C@H]1CC[C@H](Nc2ncc3nc(Nc4c(F)cc(F)cc4F)n([C@H]4CCOC4)c3n2)CC1 [Tanzisertib] + CS(=O)(=O)CCNCc1ccc(-c2ccc3ncnc(Nc4ccc(OCc5cccc(F)c5)c(Cl)c4)c3c2)o1 [Lapatinib] (partner 2 µM)
Summary of the method: as §1

[4] = compound: O[C@H]1CC[C@H](Nc2ncc3nc(Nc4c(F)cc(F)cc4F)n([C@H]4CCOC4)c3n2)CC1 [Tanzisertib] + Cc1cc(Nc2cc(N3CCN(C)CC3)nc(Sc3ccc(NC(=O)C4CC4)cc3)n2)n[nH]1 [Tozasertib] (partner 0.1 µM)
Summary of the method: as §1

Row | Cell Line | relative viability ([1]; first compound 0.04 µM) | relative viability ([1]; first compound 0.1265 µM) | relative viability ([1]; first compound 0.4 µM) | relative viability ([1]; first compound 1.265 µM) | relative viability ([1]; first compound 4 µM) | relative viability ([2]; first compound 0.08 µM) | relative viability ([2]; first compound 0.253 µM) | relative viability ([2]; first compound 0.8 µM) | relative viability ([2]; first compound 2.53 µM) | relative viability ([2]; first compound 8 µM) | relative viability ([3]; first compound 0.08 µM) | relative viability ([3]; first compound 0.253 µM) | relative viability ([3]; first compound 0.8 µM) | relative viability ([3]; first compound 2.53 µM) | relative viability ([3]; first compound 8 µM) | relative viability ([4]; first compound 0.08 µM) | relative viability ([4]; first compound 0.253 µM) | relative viability ([4]; first compound 0.8 µM) | relative viability ([4]; first compound 2.53 µM) | relative viability ([4]; first compound 8 µM)
1 | NCI-H647 | 0.199 | 0.2 | 0.24 | 0.166 | 0.145 | 1.03 | 1.01 | 1 | 1.14 | 1.02 | 1.28 | 1.23 | 1.01 | 1.31 | 0.917 | 0.283 | 0.269 | 0.281 | 0.388 | 0.226
2 | NCI-H650 |  | 0.932 | 0.809 |  | 0.614 | 0.868 | 1 | 0.87 | 0.945 | 0.366 | 0.963 | 1.14 | 1.02 | 1.06 | 0.295 | 0.761 | 0.796 | 0.776 | 0.768 | 0.65
3 | EKVX | 0.365 | 0.383 | 0.566 | 0.354 | 0.379 | 1.1 | 0.996 | 1.02 | 0.965 | 0.683 | 0.161 | 0.186 | 0.208 | 0.394 | 0.197 | 0.403 | 0.395 | 0.407 | 0.36 | 0.377
4 | NCI-H460 | 0.0682 | 0.063 | 0.0594 | 0.0603 | 0.0691 | 1.21 | 1.2 | 1.12 | 1.07 | 0.965 | 0.968 | 0.959 | 0.949 | 0.952 | 1.05 | 0.548 | 0.376 | 0.457 | 0.382 | 0.099
5 | LCLC-97TM1 | 0.207 | 0.188 | 0.172 | 0.0771 | 0.21 | 1.13 | 1.24 | 0.784 | 0.957 | 0.518 |  | 0.92 | 0.696 | 0.568 | 0.863 | 0.252 | 0.199 | 0.207 | 0.207 | 0.179
6 | COR-L23 | 0.204 | 0.195 | 0.188 | 0.201 | 0.178 | 1.13 | 0.982 | 0.975 | 1.11 | 1.04 | 1.12 | 0.954 | 0.961 | 1.07 | 0.98 | 0.201 | 0.228 | 0.184 | 0.189 | 0.121
7 | NCI-H1355 | 1.1 | 1.06 | 1.01 | 1.06 | 1.05 | 1.1 | 1.34 | 1.23 | 1.23 | 1.34 | 1.02 | 1.03 | 1.05 | 1.06 | 1.05 | 0.526 | 0.562 | 0.576 | 0.528 | 0.405
8 | NCI-H1666 | 0.872 | 0.815 | 0.847 | 0.956 | 0.974 | 0.75 | 0.732 | 1.03 | 0.872 | 0.909 | 0.669 | 0.67 | 0.901 | 0.622 | 0.725 | 0.609 | 0.698 | 0.611 | 0.656 | 0.592
9 | EPLC-272H | 0.251 | 0.339 | 0.312 | 0.238 | 0.225 | 1.04 | 0.949 | 0.876 | 0.943 | 1.04 | 0.929 | 1.06 | 0.955 | 1.22 | 1.03 | 0.308 | 0.183 | 0.326 | 0.303 | 0.171
10 | NCI-H1651 | 0.628 | 0.584 | 0.663 | 0.611 | 0.706 | 0.897 | 0.917 | 0.925 | 0.875 | 0.853 | 0.898 | 1.03 | 0.797 | 0.782 | 0.864 | 0.711 | 0.707 | 0.637 | 0.689 | 0.557
11 | HCC-44 | 0.594 | 0.603 | 0.636 | 0.707 | 0.627 | 0.934 | 0.938 | 0.912 | 0.936 | 0.999 | 1.07 | 1.16 | 1.12 | 1.1 | 1.25 | 1.05 | 0.913 | 1.04 | 0.976 | 1.02
12 | SW 1573 | 0.792 | 0.792 | 0.845 | 0.582 | 0.703 | 1.09 | 1.09 | 0.946 | 1.15 | 0.712 | 0.625 | 1.09 | 1 | 1.01 | 1.1 | 0.174 | 0.185 | 0.151 | 0.204 | 0.139
13 | PC-3 [JPC-3] | 1.12 | 1.07 | 1.16 | 1.07 | 0.88 | 0.875 | 0.931 | 0.847 | 0.739 | 0.716 | 0.466 | 0.406 | 0.494 | 0.422 | 0.494 | 0.903 | 0.99 | 0.943 | 0.852 | 0.781
14 | LOU-NH91 | 0.378 | 0.378 | 0.393 | 0.44 | 0.368 | 0.49 | 0.516 | 0.493 | 0.502 | 0.543 | 0.782 | 0.775 | 0.64 | 0.771 | 0.716 | 0.778 | 0.683 | 0.681 | 0.652 | 0.596
15 | PC-14 | 0.139 | 0.126 | 0.138 |  | 0.169 | 1.05 | 0.878 | 0.879 | 1.01 | 0.585 | 0.34 | 0.303 | 0.26 | 0.341 | 0.311 | 0.652 | 0.605 | 0.54 | 0.537 | 0.499
16 | NCI-H2087 | 0.654 | 0.651 | 0.65 | 0.571 | 0.577 | 0.985 | 0.931 | 0.835 | 0.9 | 0.857 | 1.19 | 1.08 | 1.2 | 1.07 | 0.974 | 0.238 | 0.287 | 0.277 | 0.209 | 0.202
